Source: patent publication US20220204510A1, “2,3-DIHYDRO-1H-PYRROLIZINE-7-FORMAMIDE DERIVATIVE AND APPLICATION THEREOF” (CHIA TAI TIANQING PHARMACEUTICAL GROUP CO., LTD., priority 2018, published 2022)

Assays:
CYP1A2 = target: T1, CYP1A2 (Homo sapiens, UniProt P05177); experiment: Inhibition of human liver microsomal cytochrome P450 isoenzymes; type: in vitro ADME; conditions: human liver microsomes
T1 construct: from tissue; host or cells: human liver microsomes
T1 sequence (P05177 1-516): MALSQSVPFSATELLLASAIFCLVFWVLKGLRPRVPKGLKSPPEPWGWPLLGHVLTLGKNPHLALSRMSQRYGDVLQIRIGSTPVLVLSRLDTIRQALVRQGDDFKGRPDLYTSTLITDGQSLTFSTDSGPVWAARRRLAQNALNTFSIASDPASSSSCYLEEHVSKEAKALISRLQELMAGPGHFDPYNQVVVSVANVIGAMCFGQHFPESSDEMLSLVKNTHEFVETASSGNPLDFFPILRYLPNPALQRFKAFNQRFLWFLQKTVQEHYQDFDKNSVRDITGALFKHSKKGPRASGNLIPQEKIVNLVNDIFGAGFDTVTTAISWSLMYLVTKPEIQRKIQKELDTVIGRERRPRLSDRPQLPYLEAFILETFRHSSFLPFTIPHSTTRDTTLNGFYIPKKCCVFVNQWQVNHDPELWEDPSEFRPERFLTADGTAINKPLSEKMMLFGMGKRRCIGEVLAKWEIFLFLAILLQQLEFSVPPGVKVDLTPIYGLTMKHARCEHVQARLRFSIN
Experimental: (§1) Experimental objective: to determine the inhibitory effect of the test compound on the activity of human liver microsomal cytochrome P450 isoenzymes (CYP1A2, CYP2C9, CYP2C19, CYP2D6 and CYP3A4). Experimental procedures: first, the test compound (10 mM) was diluted in gradient to prepare working solutions (100× final concentration) at concentrations of: 5, 1.5, 0.5, 0.15, 0.05, 0.015, and 0.005 mM, and working solutions of positive inhibitors for P450 isoenzymes (CYP1A2, CYP2C9, CYP2C19, CYP2D6, and CYP3A4) and the specific substrate mixtures thereof (5 in 1) were prepared simultaneously; human liver microsomes frozen in a−80° C. refrigerator were thawed on ice, and after all thawed, the human liver microsomes were diluted with PB to prepare a working solution at a specific concentration (0.253 mg/mL); 20 μL of the substrate mixture (20 μL of PB was added into the blank well) and 158 μL of the working solution of human liver microsomes were added into the reaction plate which was then placed on ice for use; then 2 μL of the test compound at each concentration (N=1) and a specific inhibitor (N=2) were added into the corresponding well, and the group without the inhibitor (test compound or the positive inhibitor) was added with a corresponding organic solvent as a control sample (the test compound control sample was 1:1 DMSO:MeOH; the positive control sample was 1:9 DMSO:MeOH); after pre-incubation under a 37° C. water bath for 10 min, 20 μL of a coenzyme factor (NADPH) solution was added into the reaction plate and incubated under a 37° C. water bath for 10 min, 400 μL of a cold acetonitrile solution (the internal standard was 200 ng/mL Tolbutamide and Labetalol) was added to terminate the reaction, and the reaction plate was placed on a shaker and shaken for 10 min; after centrifugation at 4,000 rpm for 20 min, 200 μL of the supernatant was collected and added to 100 μL of water to dilute the sample, and, finally, the plate was sealed, oscillated shaken evenly, and subjected to LC/MS/MS detection.

CYP2C19 = target: T2, CYP2C19 (Homo sapiens, UniProt P33261); experiment: as above; type: in vitro ADME; conditions: human liver microsomes
T2 construct: from tissue; host or cells: human liver microsomes
T2 sequence (P33261 whole entry): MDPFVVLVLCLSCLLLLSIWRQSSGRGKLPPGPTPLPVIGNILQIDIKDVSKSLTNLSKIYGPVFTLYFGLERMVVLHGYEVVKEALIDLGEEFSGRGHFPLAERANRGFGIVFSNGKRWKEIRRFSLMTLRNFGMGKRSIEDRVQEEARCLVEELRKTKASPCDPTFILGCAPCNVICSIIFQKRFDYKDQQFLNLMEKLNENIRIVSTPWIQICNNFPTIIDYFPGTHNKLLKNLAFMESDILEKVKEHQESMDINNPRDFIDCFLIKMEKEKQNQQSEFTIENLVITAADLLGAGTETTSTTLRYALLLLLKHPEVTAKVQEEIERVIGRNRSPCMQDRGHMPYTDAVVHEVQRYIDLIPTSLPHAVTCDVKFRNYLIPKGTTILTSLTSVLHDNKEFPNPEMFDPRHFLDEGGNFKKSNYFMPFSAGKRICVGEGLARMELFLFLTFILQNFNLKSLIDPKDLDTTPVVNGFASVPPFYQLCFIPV
Experimental: as §1

CYP2C9 = target: T3, CYP2C9 (Homo sapiens, UniProt P11712); experiment: as above; type: in vitro ADME; conditions: human liver microsomes
T3 construct: from tissue; host or cells: human liver microsomes
T3 sequence (P11712 whole entry): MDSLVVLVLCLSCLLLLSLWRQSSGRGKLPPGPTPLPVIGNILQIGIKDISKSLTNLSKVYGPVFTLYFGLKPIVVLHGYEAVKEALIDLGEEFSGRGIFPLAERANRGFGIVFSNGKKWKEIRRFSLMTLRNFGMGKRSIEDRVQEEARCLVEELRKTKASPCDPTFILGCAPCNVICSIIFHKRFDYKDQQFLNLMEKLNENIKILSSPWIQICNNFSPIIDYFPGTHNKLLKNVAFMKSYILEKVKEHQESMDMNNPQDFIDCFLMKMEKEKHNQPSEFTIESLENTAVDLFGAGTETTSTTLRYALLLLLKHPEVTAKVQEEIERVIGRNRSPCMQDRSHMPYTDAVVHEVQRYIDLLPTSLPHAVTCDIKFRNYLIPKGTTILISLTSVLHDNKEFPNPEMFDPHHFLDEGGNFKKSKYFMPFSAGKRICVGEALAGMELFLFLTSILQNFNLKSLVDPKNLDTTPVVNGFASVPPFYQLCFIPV
Experimental: as §1

CYP2D6 = target: T4, CYP2D6 (Homo sapiens, UniProt P10635); experiment: as above; type: in vitro ADME; conditions: human liver microsomes
T4 construct: from tissue; host or cells: human liver microsomes
T4 sequence (P10635 whole entry): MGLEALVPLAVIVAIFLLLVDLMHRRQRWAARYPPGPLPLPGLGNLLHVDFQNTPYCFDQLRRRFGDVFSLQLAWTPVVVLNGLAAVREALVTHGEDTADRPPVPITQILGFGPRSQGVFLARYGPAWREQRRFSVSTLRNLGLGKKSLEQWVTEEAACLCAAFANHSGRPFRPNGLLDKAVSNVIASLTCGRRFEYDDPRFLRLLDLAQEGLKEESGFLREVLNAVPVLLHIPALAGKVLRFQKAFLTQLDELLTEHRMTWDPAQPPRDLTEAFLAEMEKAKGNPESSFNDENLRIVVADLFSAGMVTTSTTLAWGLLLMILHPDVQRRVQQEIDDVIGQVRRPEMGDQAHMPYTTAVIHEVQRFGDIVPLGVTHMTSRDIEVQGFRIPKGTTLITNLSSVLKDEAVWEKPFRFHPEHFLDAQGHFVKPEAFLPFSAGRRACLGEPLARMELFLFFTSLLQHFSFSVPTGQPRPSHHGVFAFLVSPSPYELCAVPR
Experimental: as §1

CYP3A4 = target: T5, CYP3A4 (Homo sapiens, UniProt P08684); experiment: as above; type: in vitro ADME; conditions: human liver microsomes
T5 construct: from tissue; host or cells: human liver microsomes
T5 sequence (P08684 whole entry): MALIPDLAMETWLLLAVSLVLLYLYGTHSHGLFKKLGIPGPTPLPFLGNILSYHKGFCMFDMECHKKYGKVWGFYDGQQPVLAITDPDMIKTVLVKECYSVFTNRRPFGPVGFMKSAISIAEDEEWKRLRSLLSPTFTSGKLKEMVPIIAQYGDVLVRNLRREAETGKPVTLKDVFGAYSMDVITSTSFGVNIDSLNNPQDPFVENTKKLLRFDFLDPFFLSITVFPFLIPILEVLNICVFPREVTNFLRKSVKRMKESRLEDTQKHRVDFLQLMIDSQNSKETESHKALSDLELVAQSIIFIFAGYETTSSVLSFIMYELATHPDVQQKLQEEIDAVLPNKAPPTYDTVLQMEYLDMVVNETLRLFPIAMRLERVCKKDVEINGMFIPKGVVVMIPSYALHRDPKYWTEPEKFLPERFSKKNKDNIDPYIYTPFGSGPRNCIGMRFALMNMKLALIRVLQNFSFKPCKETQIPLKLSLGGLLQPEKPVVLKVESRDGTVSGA
Experimental: as §1

[1] = Metabolic stability in liver microsomes; type: in vitro ADME, human; conditions: for half-life at 1 μM: Human liver microsomes, 1 μM compound, 0.5 mg/mL; for CLint scaled at 1 μM / microsomal CLint at 1 μM: human liver microsomes; for microsomal CLint at 1 μM: read-out: CLint(mic)
Experimental: Experimental objective: to evaluate the metabolic stability of the test compound in CD-1 mice and human liver microsomes
Experimental procedures: first, the test compound (10 mM) was subjected to a two-step dilution, where the compound was diluted to an intermediate concentration of 100 μM with 100% methanol, and the working solution was diluted to 10 μM with a potassium phosphate buffer; eight 96-well incubation plates were prepared, and named T0, T5, T10, T20, T30, T60, Blank and NCF60, respectively; the reaction time points corresponding to the first 6 incubation plates were 0, 5, 10, 20, 30 and 60 min, respectively; for the Blank plate, neither the test compound nor a control compound was added, and for the NCF60 plate, potassium phosphate buffer was used in an incubation of 60 min in place of a NADPH regeneration system solution; 10 μL of the test compound working solution and 80 μL of the microsome working solution (liver microsome protein concentration was 0.625 mg/mL) were added to the T0, T5, T10, T20, T30, T60 and NCF60 plates, while only the microsome working solution was added to the Blank plate, and all the incubation plates were then placed in a 37° C. water bath for pre-incubation for about 10 min; after the pre-incubation, 10 μL of a NADPH regeneration system working solution was added into each sample well of all the plates except the NCF60 plate and T0 plate to start the reaction, and 10 μL of potassium phosphate buffer was added to each well of the NCF60 plate; therefore, in the test compound or control compound samples, the final reaction concentrations of the compound, testosterone, diclofenac and propafenone were 1 μM, the concentration of the liver microsomes was 0.5 mg/mL, and the final concentrations of DMSO and acetonitrile in the reaction system were 0.01% (v/v) and 0.99% (v/v), respectively; after incubation for an appropriate time (such as 5, 10, 20, 30, and 60 min), 300 μL of a stop solution (acetonitrile solution containing 100 ng/mL tolbutamide and 100 ng/mL labetalol) was added to each sample well to stop the reaction; 300 μL of the stop solution and then 10 μL of the NADPH working solution were added to the T0 plate, all the sample plates were shaken and centrifuged in a centrifuge (3220×g) for 20 min, and then 100 μL of supernatant was taken from each well and diluted with 300 μL of pure water for liquid chromatography-tandem mass spectrometry analysis.

SMILES | IC50 (CYP1A2) [µM] | IC50 (CYP2C19) [µM] | IC50 (CYP2C9) [µM] | IC50 (CYP2D6) [µM] | IC50 (CYP3A4) [µM] | half-life at 1 μM [1] [h] | CLint scaled at 1 μM [1] [mL/min/kg] | microsomal CLint at 1 μM [1] [µL/min/mg]
C[C@]1(NC(=O)C(=O)c2c(Cl)c(C(=O)Nc3ccc(F)c(F)c3)c3n2CCC3)CC[C@H](CC(=O)O)CC1 [Compound 18] | > 50 | > 50 | > 50 | > 50 | > 50 | > 2.42 | < 8.6 | < 9.6
C[C@]1(NC(=O)C(=O)c2c(Cl)c(C(=O)Nc3cc(F)c(F)c(F)c3)c3n2CCC3)CC[C@H](CC(=O)O)CC1 [Compound 25] | > 50 | > 50 | > 50 | > 50 | > 50 | > 2.42 | < 8.6 | < 9.6
